Results as given in ChEMBL document CHEMBL1201862, “PubChem BioAssay data set” (2004).
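Dose response: 5 concentrations. Exposure: 48 h. Format: 96-well plates. Endpoint: linear interpolation; highest concentration if not reached. GI50: concentration for 50% inhibition of growth.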 The source made the active and inactive calls. Cut-off read from the data, not from the text of the source: active = GI50 up to about 1.1 µM and inactive = higher.

Key:
Experiment in all cases: NCI-60 cell line screen, 48 h
[1] = test system: 786-0
[2] = test system: A498
[3] = test system: A549
[4] = test system: ACHN
[5] = test system: CAKI-1
[6] = test system: CCRF-CEM
[7] = test system: COLO 205
[8] = test system: DLD-1
[9] = test system: DMS-114
[10] = test system: DMS-273
[11] = test system: EKVX
[12] = test system: HCC 2998
[13] = test system: HCT-116
[14] = test system: HCT-15
[15] = test system: HL-60
[16] = test system: HOP-18
[17] = test system: HOP-92
[18] = test system: HT-29
[19] = test system: IGROV-1
[20] = test system: K562
[21] = test system: KM-20L2
[22] = test system: KM12
[23] = test system: LOX IMVI
[24] = test system: LXFL 529
[25] = test system: M14
[26] = test system: M19-MEL
[27] = test system: MOLT-4
[28] = test system: Malme-3M
[29] = test system: NCI-H226
[30] = test system: NCI-H23
[31] = test system: NCI-H460
[32] = test system: NCI-H522
[33] = test system: OVCAR-3
[34] = test system: OVCAR-4
[35] = test system: OVCAR-5
[36] = test system: OVCAR-8
[37] = test system: RXF 631
[38] = test system: SF-268
[39] = test system: SF-295
[40] = test system: SF-539
[41] = test system: SK-MEL-28
[42] = test system: SK-MEL-2
[43] = test system: SK-MEL-5
[44] = test system: SK-OV-3
[45] = test system: SN12C
[46] = test system: SNB-19
[47] = test system: SNB-75
[48] = test system: SNB-78
[49] = test system: SR
[50] = test system: SW-620
[51] = test system: TK-10
[52] = test system: U-251
[53] = test system: UACC-257
[54] = test system: UACC-62
[55] = test system: UO-31
[56] = test system: HOP-62
[57] = test system: RPMI-8226
[58] = test system: RXF 393
[59] = test system: XF498

Measured: GI50

CCC(=O)C1=C(OC(C)=O)C2Cc3c(n(C)c4ccccc34)C(C1)N2C (stereo unspecified)
18.7 µM: [14]
inactive: [1] 22.2 µM | [2] 42.9 µM | [3] 68.5 µM | [4] 27.3 µM | [5] 33.7 µM | [6] 27 µM | [7] 34 µM | [8] 23.8 µM | [9] 26.7 µM | [10] 20 µM | [11] 64.3 µM | [12] 38 µM | [13] 29.9 µM | [15] 21.6 µM | [16] 25.4 µM | [17] 67 µM | [18] 30.8 µM | [19] 29.9 µM | [20] 33.3 µM | [21] 35.9 µM | [22] 45.9 µM | [23] 40.5 µM | [24] 29 µM | [25] 37.8 µM | [26] 41.4 µM | [27] 34.7 µM | [28] 48.6 µM | [29] > 100 µM | [30] 68.9 µM | [31] 53 µM | [32] 15.3 µM | [33] 22.9 µM | [34] 28.4 µM | [35] > 100 µM | [36] 18.9 µM | [37] 22.9 µM | [38] 19 µM | [39] > 100 µM | [40] 16.7 µM | [41] 71.8 µM | [42] 63.7 µM | [43] 28.2 µM | [44] > 100 µM | [45] 25.3 µM | [46] > 100 µM | [47] 25.5 µM | [48] 22.3 µM | [49] 36.1 µM | [50] 26.1 µM | [51] 66.1 µM | [52] > 100 µM | [53] 24.5 µM | [54] 26.2 µM | [55] 36.1 µM

Nc1n[n+]([O-])c2ccccc2[n+]1[O-] [TIRAPAZAMINE]
> 100 µM: [14]
inactive: [1] > 100 µM | [3] 93.5 µM | [4] 48.6 µM | [5] 46.2 µM | [6] > 100 µM | [7] > 100 µM | [9] 44.4 µM | [10] 52.2 µM | [11] > 100 µM | [15] > 100 µM | [56] 53.1 µM | [17] 29.7 µM | [18] > 100 µM | [19] 75.5 µM | [20] > 100 µM | [22] > 100 µM | [23] > 100 µM | [24] > 100 µM | [25] > 100 µM | [26] 95.9 µM | [27] 37.4 µM | [28] 50.4 µM | [29] > 100 µM | [31] 49.7 µM | [32] 99.8 µM | [33] > 100 µM | [34] > 100 µM | [35] > 100 µM | [36] > 100 µM | [57] 57.4 µM | [58] 57.5 µM | [37] > 100 µM | [38] > 100 µM | [39] > 100 µM | [40] > 100 µM | [41] > 100 µM | [42] > 100 µM | [43] 40.5 µM | [44] 73.1 µM | [45] > 100 µM | [46] > 100 µM | [47] 29.6 µM | [48] > 100 µM | [50] > 100 µM | [51] > 100 µM | [52] > 100 µM | [53] 72.4 µM | [54] 61.7 µM | [55] > 100 µM | [59] 44.4 µM
